Where “and” joins values, the source holds several entries; their conditions need not be identical. Identical values can stand only once. Where no end group is shown, it is not given here.
Legend:
DHL6 [1] = experiment: MTS viability assay, DHL6; format: cell-based; details: DHL6, 48 hours
Protocol: (§1) The mitochondrial profiling assay was carried out in three steps: (1) cell preparation and counting, (2) cell permeabilization and peptide treatment, and (3) fluorescent readout (FIG. 1). Cells are suspended in Mitochondria loading Buffer with 0.005% digitonin, loaded with the cationic dye JC-1 (1 μM), and treated with 100 μM of one of the BH3 domain peptides: Bim, Bad, Noxa, and Puma. MOMP is followed by full mitochondrial membrane depolarization (ΔΨm), which is measured by treating the cells with the ionophore FCCP (p-trifluoromethoxy carbonyl cyanide phenyl hydrazone). Peptide (and FCCP) addition results in a decrease in membrane potential in suitably primed cells and is measured as a decrease in JC-1 fluorescence in a 384 well plate on a TecanGenios plate reader using an excitation of 535 nm and an emission of 590 nm.
(§2) Tables 3 and 4 show the percent priming of various cell lines, as determined by measuring the signal intensity of the JC-1 dye which is an indicator of mitochondrial depolarization. […] Viability was measured using an MTS assay. The IC50 is in μM.

Bcl-2 1863 = experiment: MTS viability assay, Bcl-2 1863; format: cell-based; details: Bcl-2 primed cells (Bcl-2 1863)
LPN3 [2] = experiment: MTS viability assay, LPN3; format: cell-based; details: LPN3, 48 hours
Protocol: as §1, §2

Mcl-1 1780 [3] = experiment: MTS viability assay, Mcl-1 1780; format: cell-based; details: for IC50: Mcl1-1780, Mcl-1 1780, 48 hours
Protocol: as §1, §2

NCI-H929 [4] = experiment: MTS viability assay, NCI-H929; format: cell-based; details: Homo sapiens; NCI-H929, 48 hours
Protocol: as §1, §2

DHL10 = experiment: MTS viability assay, DHL10; format: cell-based; details: for IC50: DHL10 (Bax/Bak deficient), 48 hours
Protocol: as §1, §2

OPM2/Luciferase cells = experiment: Tumor burden by bioluminescence imaging in xenografted mice; format: in vivo; details: OPM2/Luciferase xenograft in SCID mice, velcade 1 mpk IV 3×/week, compared with vehicle-only
Protocol: Mice were injected with 75 mg/kg D-luciferin, anesthetized, and imaged 10 minutes after substrate injection. Total body luminescence was determined using a standardized region of interest encompassing the entire mouse using the Living Images software package (Caliper Life Sciences).
OPM2/Luciferase cells were transferred to SCID mice and allowed to reach tumor burden. Xenografted mice were treated with EU-5148 (20 mpk IV, 3×/week), velcade for (1 mpk IV, 3×/week), or a combination of these treatments. […] The combination treatment of EU-5148 with Velcade results in 92% reduction in tumor cell burden over same time period.

multiple myeloma = experiment: Patient M-protein (M-spike) response to Velcade/Bortezomib treatment; format: in vivo, human; design: key to Δ M-Spike: % decrease in M-protein over treatment period; details: for Δ M-Spike: Velcade/Bortezomib combination regimen
Description: To date, we have obtained Mitochondrial profiles from 14 multiple myeloma or plasma cell leukemia patients. Each of the samples tested came from patients treated with one of several different Velcade/Bortezomib combination regimens. The samples listed in Table 5 are viably frozen from a tissue bank or from fresh bone marrow delivered within a few hours of the biopsy. CD138 cells are purified from either source using two similar procedures that have been optimized for each respective tissue type. Profiles on frozen cells are performed immediately following purification. Profiles on fresh cells are performed immediately or on viably frozen CD138 positive cells. […] M-protein is an indication of myeloma activity and is widely used diagnostic marker of the severity of the disease. The patient M-protein response is converted to a percentage of the best response seen among the group of patients tested. The M-spike response is calculated as a percent decrease in M-protein over a given treatment period. […] The percent decrease is calculated with the following equation. The percent best response is used to normalize the data to a fixed scale where 100% is the best response and 0% is the worst response. It is calculated with the equation below. Cancer cells collected from a patient undergoing Velcade based treatment were mitochondrial profiled at three time points during the course of treatment (October 2010, January 2011, and May 2011). The profile was used to monitor the apoptotic predisposition of the CD-138 positive MM cells during treatment.

Mcl-1 1780 [5] = experiment: Mitochondrial profiling assay (JC-1), Mcl-1 1780; format: cell-based; details: Mcl-1 1780, percent priming, JC-1, 100 μM peptide
Protocol: as §1, §2

DHL6 [6] = experiment: Mitochondrial profiling assay (JC-1), DHL6; format: cell-based; details: DHL6, percent priming, JC-1, 100 μM peptide
Protocol: as §1, §2

NCI-H929 [7] = experiment: Mitochondrial profiling assay (JC-1), NCI-H929; format: cell-based; details: NCI-H929, percent priming, JC-1, 100 μM peptide
Protocol: as §1, §2

LPN3 [8] = experiment: Mitochondrial profiling assay (JC-1), LPN3; format: cell-based; details: LPN3, percent priming, JC-1, 100 μM peptide
Protocol: as §1, §2

BCL-2 = BCL-2 (Homo sapiens, UniProt P10415); experiment: BH3 domain binding affinities to BCL-2
Sequence of BCL-2 (P10415 whole entry, the tested form may be a part): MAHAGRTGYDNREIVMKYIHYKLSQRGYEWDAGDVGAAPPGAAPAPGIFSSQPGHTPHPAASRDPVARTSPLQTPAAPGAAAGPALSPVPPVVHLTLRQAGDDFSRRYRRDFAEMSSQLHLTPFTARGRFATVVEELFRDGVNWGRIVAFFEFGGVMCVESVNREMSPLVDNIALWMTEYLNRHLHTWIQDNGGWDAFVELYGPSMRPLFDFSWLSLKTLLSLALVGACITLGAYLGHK

BCL-XL = BCL-XL (Homo sapiens, UniProt Q07817); experiment: BH3 domain binding affinities to BCL-XL
Sequence of BCL-XL (Q07817 whole entry, the tested form may be a part): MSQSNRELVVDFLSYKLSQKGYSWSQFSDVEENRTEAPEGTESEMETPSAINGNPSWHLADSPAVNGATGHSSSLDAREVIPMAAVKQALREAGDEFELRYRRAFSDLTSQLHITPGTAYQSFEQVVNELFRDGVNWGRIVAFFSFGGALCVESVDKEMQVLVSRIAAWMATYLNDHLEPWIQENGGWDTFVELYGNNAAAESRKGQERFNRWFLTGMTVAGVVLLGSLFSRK

Molecule: CC1(C)CCC(c2ccc(Cl)cc2)=C(CN2CCN(c3ccc(C(=O)NS(=O)(=O)c4ccc(N[C@H](CCN5CCOCC5)CSc5ccccc5)c(S(=O)(=O)C(F)(F)F)c4)cc3)CC2)C1 [ABT-263, Navitoclax]
- IC50 (DHL6 [1]): < 1000 nM
- cell-killing activity (in words) (Bcl-2 1863): effective
- IC50 (LPN3 [2]): 4100 nM
- IC50 (Mcl-1 1780 [3]): 17000 nM
- cell-killing activity (in words) (Mcl-1 1780 [3]; Mcl-1 primed cells (Mcl-1 1780)): ineffective
- IC50 (NCI-H929 [4]): 4000 nM
- IC50 (DHL10): > 25000 nM
- cell-killing activity (in words) (DHL10; DHL-10 cells deficient in the Bax-Bak proteins): not responsive

Molecule: COC1=CC(c2cc3ccccc3[nH]2)=N/C1=C\c1[nH]c(C)cc1C [Obatoclax]
- IC50 (DHL6 [1]): 1200 nM
- IC50 (Mcl-1 1780 [3]): 1500 nM
- IC50 (NCI-H929 [4]): 1000 nM
- IC50 (DHL10): 800 nM

Molecule: CC(C)C[C@H](NC(=O)[C@H](Cc1ccccc1)NC(=O)c1cnccn1)B(O)O [Velcade, Bortezomib]
- mean tumor burden reduction (in words) (OPM2/Luciferase cells): mean tumor burden reduction was observed
- Δ M-Spike (multiple myeloma; Patient No. 3039T): 64.71
- Δ M-Spike (multiple myeloma; Patient No. 3098T): 62.50
- Δ M-Spike (multiple myeloma; Patient No. 3161T): 12.90
- Δ M-Spike (multiple myeloma; Patient No. 3187T): 65.22
- Δ M-Spike (multiple myeloma; Patient No. 3188T): 93.03
- Δ M-Spike (multiple myeloma; Patient No. 3191T): 57.69
- Δ M-Spike (multiple myeloma; Patient No. 3201T): 87.50
- Δ M-Spike (multiple myeloma; Patient No. 3213T): −10.00
- Δ M-Spike (multiple myeloma; Patient No. 3221T): 52.38
- M-Spike (multiple myeloma; TB# 3098T2, Jan. 27, 2011, patient undergoing Velcade based treatment): 0.8 g/dL
- M-Spike (multiple myeloma; TB# 3098T3, May 5, 2011, patient undergoing Velcade based treatment): 0.3 g/dL
- M-Spike (multiple myeloma; TB# 3098T, Oct. 13, 2010, patient undergoing Velcade based treatment): 1.7 g/dL

Molecule: AELPPEFAAQLRKIGDKVYC [NOXA BH3, BH3 domain peptide]
- Mcl-1 Priming State (NOXA Signal) (Mcl-1 1780 [5]): 75 (HIGH) % and 71 (HIGH) %
- Mcl-1 Priming State (NOXA Signal) (DHL6 [6]): 18 (LOW) %
- Mcl-1 Priming State (NOXA Signal) (NCI-H929 [7]): 74 (HIGH) %
- Mcl-1 Priming State (NOXA Signal) (LPN3 [8]): 58 (HIGH) %

Molecule: NLWAAQRYGRELRRMSDEFVDSFK [BAD BH3]
- Kd (BCL-2): 11 nM
- Kd (BCL-XL): < 10 nM
